# Data as given in PubChem BioAssay AID2060887 (Molecular Pharmacology Branch, DTP, NCI, 2025).
# Test system: 782815-120-R-J1-PDC complex spheroid viability
# Experiment: Anticancer human tumor 782815-120-R-J1-PDC patient-derived colon adenocarcinoma cell line growth inhibition [RAS]
# Settings: for IC50: curve of first compound; for viability, T/C: stronger effect = lower value
# How it was run: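 Agents were tested in combination matrices in half-log decrements from a top concentration at or near clinical Cmax (10 microM if undetermined). Targets were multi-cell spheroids of tumour lines plus HUVEC and MSC stromal cells.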
# 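Note: spheroids exposed to compounds for 7 days before reading.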
# 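Throughout, for viability, T/C: 100% = DMSO vehicle control viability.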
smiles,measurement,setting,value
CC(C)NCC(C(=O)N1CCN(c2ncnc3c2C(C)CC3O)CC1)c1ccc(Cl)cc1 (centres undefined) + CCn1c(-c2cc(N3CCN(C)CC3)cnc2C(C)OC)c2c3cc(ccc31)-c1csc(n1)CC(NC(=O)C1CC1C)C(=O)N1CCCC(N1)C(=O)OCC(C)(C)C2,IC50,second compound 0.000949 µM,> 10 µM
same,IC50,second compound 0.003 µM,> 10 µM
same,IC50,second compound 0.00949 µM,< 0.0316 µM
same,IC50,second compound 0.03 µM,< 0.0316 µM
same,IC50,second compound 0.0949 µM,< 0.0316 µM
same,IC50,second compound 0.3 µM,< 0.0316 µM
same,"viability, T/C","second compound 0.000949 µM, first compound 0.0316 µM",79.6%
same,"viability, T/C","second compound 0.000949 µM, first compound 0.1 µM",77.7%
same,"viability, T/C","second compound 0.000949 µM, first compound 0.316 µM",74.5%
same,"viability, T/C","second compound 0.000949 µM, first compound 1 µM",71.6%
same,"viability, T/C","second compound 0.000949 µM, first compound 3.16 µM",77.4%
same,"viability, T/C","second compound 0.000949 µM, first compound 10 µM",87.9%
same,"viability, T/C","second compound 0.003 µM, first compound 0.0316 µM",57.2%
same,"viability, T/C","second compound 0.003 µM, first compound 0.1 µM",54.8%
same,"viability, T/C","second compound 0.003 µM, first compound 0.316 µM",61.9%
same,"viability, T/C","second compound 0.003 µM, first compound 1 µM",50.3%
same,"viability, T/C","second compound 0.003 µM, first compound 3.16 µM",57.2%
same,"viability, T/C","second compound 0.003 µM, first compound 10 µM",51.3%
same,"viability, T/C","second compound 0.00949 µM, first compound 0.0316 µM",34.2%
same,"viability, T/C","second compound 0.00949 µM, first compound 0.1 µM",33.1%
same,"viability, T/C","second compound 0.00949 µM, first compound 0.316 µM",35.3%
same,"viability, T/C","second compound 0.00949 µM, first compound 1 µM",30.1%
same,"viability, T/C","second compound 0.00949 µM, first compound 3.16 µM",30%
same,"viability, T/C","second compound 0.00949 µM, first compound 10 µM",26.4%
same,"viability, T/C","second compound 0.03 µM, first compound 0.0316 µM",20.2%
same,"viability, T/C","second compound 0.03 µM, first compound 0.1 µM",19.9%
same,"viability, T/C","second compound 0.03 µM, first compound 0.316 µM",19.1%
same,"viability, T/C","second compound 0.03 µM, first compound 1 µM",17.2%
same,"viability, T/C","second compound 0.03 µM, first compound 3.16 µM",16.5%
same,"viability, T/C","second compound 0.03 µM, first compound 10 µM",16.1%
same,"viability, T/C","second compound 0.0949 µM, first compound 0.0316 µM",17.2%
same,"viability, T/C","second compound 0.0949 µM, first compound 0.1 µM",17.7%
same,"viability, T/C","second compound 0.0949 µM, first compound 0.316 µM",18.8%
same,"viability, T/C","second compound 0.0949 µM, first compound 1 µM",15%
same,"viability, T/C","second compound 0.0949 µM, first compound 3.16 µM",16.1%
same,"viability, T/C","second compound 0.0949 µM, first compound 10 µM",11%
same,"viability, T/C","second compound 0.3 µM, first compound 0.0316 µM",18.3%
same,"viability, T/C","second compound 0.3 µM, first compound 0.1 µM",17.4%
same,"viability, T/C","second compound 0.3 µM, first compound 0.316 µM",15.3%
same,"viability, T/C","second compound 0.3 µM, first compound 1 µM",14.8%
same,"viability, T/C","second compound 0.3 µM, first compound 3.16 µM",14.3%
same,"viability, T/C","second compound 0.3 µM, first compound 10 µM",8.75%
CC(Nc1ccc2c(c1)OCCn1cc(N3C(=O)OCC3C(F)F)nc1-2)C(N)=O (centres undefined) + C#Cc1c(F)ccc2cc(O)cc(-c3ncc4c(N5CC6CCC(C5)N6)nc(OCC56CCCN5CC(F)C6)nc4c3F)c12,IC50,second compound 0.0316 µM,> 10 µM
same,IC50,second compound 0.1 µM,> 10 µM
same,IC50,second compound 0.316 µM,> 10 µM
same,IC50,second compound 1 µM,> 10 µM
same,IC50,second compound 3.16 µM,> 10 µM
same,IC50,second compound 10 µM,> 10 µM
same,"viability, T/C","second compound 0.0316 µM, first compound 0.0316 µM",94.1%
same,"viability, T/C","second compound 0.0316 µM, first compound 0.1 µM",98.6%
same,"viability, T/C","second compound 0.0316 µM, first compound 0.316 µM",99.9%
same,"viability, T/C","second compound 0.0316 µM, first compound 1 µM",89.7%
same,"viability, T/C","second compound 0.0316 µM, first compound 3.16 µM",96.6%
same,"viability, T/C","second compound 0.0316 µM, first compound 10 µM",91.8%
same,"viability, T/C","second compound 0.1 µM, first compound 0.0316 µM",95.7%
same,"viability, T/C","second compound 0.1 µM, first compound 0.1 µM",102%
same,"viability, T/C","second compound 0.1 µM, first compound 0.316 µM",92.9%
same,"viability, T/C","second compound 0.1 µM, first compound 1 µM",90%
same,"viability, T/C","second compound 0.1 µM, first compound 3.16 µM",100%
same,"viability, T/C","second compound 0.1 µM, first compound 10 µM",94.1%
same,"viability, T/C","second compound 0.316 µM, first compound 0.0316 µM",99%
same,"viability, T/C","second compound 0.316 µM, first compound 0.1 µM",99.2%
same,"viability, T/C","second compound 0.316 µM, first compound 0.316 µM",87.9%
same,"viability, T/C","second compound 0.316 µM, first compound 1 µM",99.8%
same,"viability, T/C","second compound 0.316 µM, first compound 3.16 µM",101%
same,"viability, T/C","second compound 0.316 µM, first compound 10 µM",94.6%
same,"viability, T/C","second compound 1 µM, first compound 0.0316 µM",106%
same,"viability, T/C","second compound 1 µM, first compound 0.1 µM",101%
same,"viability, T/C","second compound 1 µM, first compound 0.316 µM",89%
same,"viability, T/C","second compound 1 µM, first compound 1 µM",97.2%
same,"viability, T/C","second compound 1 µM, first compound 3.16 µM",87.7%
same,"viability, T/C","second compound 1 µM, first compound 10 µM",103%
same,"viability, T/C","second compound 3.16 µM, first compound 0.0316 µM",111%
same,"viability, T/C","second compound 3.16 µM, first compound 0.1 µM",92.4%
same,"viability, T/C","second compound 3.16 µM, first compound 0.316 µM",97.8%
same,"viability, T/C","second compound 3.16 µM, first compound 1 µM",87.4%
same,"viability, T/C","second compound 3.16 µM, first compound 3.16 µM",97.5%
same,"viability, T/C","second compound 3.16 µM, first compound 10 µM",95.4%
same,"viability, T/C","second compound 10 µM, first compound 0.0316 µM",102%
same,"viability, T/C","second compound 10 µM, first compound 0.1 µM",95.9%
same,"viability, T/C","second compound 10 µM, first compound 0.316 µM",79%
same,"viability, T/C","second compound 10 µM, first compound 1 µM",92.6%
same,"viability, T/C","second compound 10 µM, first compound 3.16 µM",89.1%
same,"viability, T/C","second compound 10 µM, first compound 10 µM",81.2%
